{"source": "paper PMC12040169", "about": "(PLOS Biology, 2025)"}
{"assay": "in vitro", "conditions": "human, hela cells, % viability", "units": {"viability at 28.5 h, 10 µM": "%"}}
{"compound": "CS(=O)(=O)Nc1nccnc1N1CCN(Cc2ccc([N+](=O)[O-])cc2)CC1", "note": "[CBK084274]", "viability at 28.5 h, 10 µM": 103}
{"compound": "Cc1ccnn1C(C)C(=O)NC(Cc1ccsc1)c1nccs1", "note": "(stereo not shown) [CBK285141]", "viability at 28.5 h, 10 µM": 92.1}
{"compound": "Cc1ccc2c(c1)CCCN2C(=O)c1cnc2c(c1)c(C)nn2C", "note": "[CBK305670]", "viability at 28.5 h, 10 µM": 96}
{"compound": "Brc1n[nH]c2nc(NCc3ccco3)ncc12", "note": "[CBK022327]", "viability at 28.5 h, 10 µM": 91.6}
{"compound": "O=C(CN1CCn2ccnc2C1)N(Cc1ccccc1F)C1CC1", "note": "[CBK303995]", "viability at 28.5 h, 10 µM": 89.6}
{"compound": "CCOC(=O)C(CNC(=O)c1c(CC)noc1C)Cc1ccccc1", "note": "(stereo not shown) [CBK305961]", "viability at 28.5 h, 10 µM": 90.8}
{"compound": "OCCc1ccc(Nc2cc(-c3cccnc3)ncn2)cc1", "note": "[CBK090768]", "viability at 28.5 h, 10 µM": 114}
{"compound": "CCC(CNC(=O)c1ccoc1C)N1CCCC1", "note": "(stereo not shown) [CBK304798]", "viability at 28.5 h, 10 µM": 88.9}
{"compound": "Cc1[nH]c2cccc(C(=O)N3CCOC(C)(C(=O)NC4CCCC4)C3)c2c1C", "note": "(stereo not shown) [CBK285800]", "viability at 28.5 h, 10 µM": 87.3}
{"compound": "CC(=O)Nc1cccc(CN(CCCCO)C2CC2)c1", "note": "[CBK304806]", "viability at 28.5 h, 10 µM": 91.6}
{"compound": "Fc1cccc(NCc2ccccc2)n1", "note": "[CBK000149]", "viability at 28.5 h, 10 µM": 94.9}
{"compound": "C=CCC1(CC=C)CCN1C(=O)Cc1c(C)nc(SC)[nH]c1=O", "note": "[CBK282661]", "viability at 28.5 h, 10 µM": 86.9}
{"compound": "Cc1ccc(NC(=O)CSc2nnc(-c3cnccn3)s2)cc1", "note": "[CBK269872]", "viability at 28.5 h, 10 µM": 83.3}
{"compound": "CSc1nc(C)cc(OCC(=O)Nc2ccc(Cl)cc2)n1", "note": "[CBK267525]", "viability at 28.5 h, 10 µM": 94.8}
{"compound": "CN(C)CCN(CC#Cc1ccccc1)CC#Cc1ccccc1", "note": "[CBK265035C]", "viability at 28.5 h, 10 µM": 116}
{"compound": "O=C(C1CCCC1)N1CCC(n2c(=O)oc3ccc(Cl)cc32)CC1", "note": "[CBK284344]", "viability at 28.5 h, 10 µM": 96.7}
{"compound": "Clc1ccc(COc2ccnc(N3CCCN(CC4CC4)CC3)n2)cc1Cl", "note": "[CBK083963]", "viability at 28.5 h, 10 µM": 81.3}
{"compound": "CC(=O)N1CCC2(CCCC[C@H]3CN(C(=O)C(C)C)CC[C@@H]3NC(=O)CNC2=O)CC1", "note": "[CBK292121]", "viability at 28.5 h, 10 µM": 102}
{"compound": "OCCN1CCN(c2ccc(/C=C/c3ccccc3)cn2)CC1", "note": "[CBK036849]", "viability at 28.5 h, 10 µM": 89.2}
{"compound": "COc1cc(C(=O)Nc2cc(-c3nc4ncccc4o3)ccc2C)cc(OC)c1OC", "note": "[CBK101133]", "viability at 28.5 h, 10 µM": 97}
{"compound": "Cc1cc(C)n(CCNCc2cc(-c3ccccc3)c[nH]c2=O)n1", "note": "[CBK284770]", "viability at 28.5 h, 10 µM": 101}
{"compound": "CCN(CC)Cc1ccc(C(=O)N2CCC(c3ccncc3)CC2)o1", "note": "[CBK283051]", "viability at 28.5 h, 10 µM": 105}
{"compound": "O=S(=O)(N1CCNCC1)N1CCOCC1", "note": "[CBK267467]", "viability at 28.5 h, 10 µM": 88.5}
{"compound": "COc1ccccc1CC(=O)N1CCC(Cc2ccc(-c3ccccc3)cc2)(C(N)=O)CC1", "note": "[CBK285777]", "viability at 28.5 h, 10 µM": 95.4}
{"compound": "O=C(COc1ccccc1Cl)Nc1cccc(NC(=O)c2cccc(Cl)c2)c1", "note": "[CBK263651]", "viability at 28.5 h, 10 µM": 106}
{"compound": "O=C(O)CCCn1cc(NC(=O)c2ccc(Br)o2)cn1", "note": "[CBK270042]", "viability at 28.5 h, 10 µM": 106}
{"compound": "Cc1nccn1Cc1ccccc1C(=O)NCCn1ccnc1", "note": "[CBK281580]", "viability at 28.5 h, 10 µM": 84.7}
{"compound": "O=C(O)C1CCC1C(=O)N1CCN(c2nc3ccc(Cl)cc3s2)CC1", "note": "(stereo not shown) [CBK057108]", "viability at 28.5 h, 10 µM": 92.4}
{"compound": "Cc1ccc(NC(=O)c2cc(C(=O)Nc3ccc(C)c(C)c3)cc(N3C(=O)c4ccccc4C3=O)c2)cc1C", "note": "[CBK261328]", "viability at 28.5 h, 10 µM": 93.8}
{"compound": "O=C(NCC1(c2ccccc2F)CCCC1)c1cc[nH]c(=O)c1", "note": "[CBK281378]", "viability at 28.5 h, 10 µM": 112}
{"compound": "COc1ccc(C(=O)Nc2ccccc2-c2nc3ccccc3s2)cc1OC", "note": "[CBK266376]", "viability at 28.5 h, 10 µM": 93.9}
{"compound": "Cc1cc2ncn(CC(=O)NC3Cc4ccccc4C3)c2cc1C", "note": "[CBK200261]", "viability at 28.5 h, 10 µM": 97.3}
{"compound": "COc1ccc(Nc2cc(Cl)ccc2C(=O)NC(C)(C)CN2CCOCC2)cn1", "note": "[CBK107436]", "viability at 28.5 h, 10 µM": 97.1}
{"compound": "COc1ccc(CCCC(=O)Nc2ccc(N3CCNCC3)c3ccccc23)cc1OC", "note": "[CBK028406T]", "viability at 28.5 h, 10 µM": 105}
{"compound": "CCC1CCCCN1C(=O)c1cccs1", "note": "(stereo not shown) [CBK074214]", "viability at 28.5 h, 10 µM": 104}
{"compound": "C(=C\\c1nccnc1OCCc1c[nH]c2ccccc12)/c1ccccc1", "note": "[CBK106872]", "viability at 28.5 h, 10 µM": 91.7}
{"compound": "O=C(CCCn1c(=O)[nH]c2ccsc2c1=O)Nc1ccc(F)cc1", "note": "[CBK287769]", "viability at 28.5 h, 10 µM": 93.3}
{"compound": "CSc1nsc(SCC(=O)c2cc3ccccc3oc2=O)n1", "note": "[CBK268833]", "viability at 28.5 h, 10 µM": 105}
{"compound": "O=C(CSc1ncnc2sc3c(c12)CCC3)Nc1nsc(-c2ccc(Cl)cc2)n1", "note": "[CBK266484]", "viability at 28.5 h, 10 µM": 118}
{"compound": "O=C(NCc1ccco1)[C@@H]1C=CCN1C(=O)NCc1ccccc1", "note": "[CBK284293]", "viability at 28.5 h, 10 µM": 93}
{"compound": "Cc1ccc(-n2nc(C(=O)NC3(C#N)CCSC3)cc2C)cc1", "note": "(stereo not shown) [CBK306403]", "viability at 28.5 h, 10 µM": 86.9}
{"compound": "COc1cc(CNc2nccnc2-c2cccnc2)cc(OC)c1", "note": "[CBK038061]", "viability at 28.5 h, 10 µM": 105}
{"compound": "COCCCn1c(=O)[nH]c2ncc(-c3cc(OC)c(OC)c(OC)c3)nc21", "note": "[CBK064937]", "viability at 28.5 h, 10 µM": 91.8}
{"compound": "O=C(Cn1cccn1)N1CCc2[nH]c3ccccc3c2C1", "note": "[CBK281839]", "viability at 28.5 h, 10 µM": 92.6}
{"compound": "CCOc1cc(C#N)cc(I)c1OCC(=O)O", "note": "[CBK266326]", "viability at 28.5 h, 10 µM": 96.9}
{"compound": "CCCn1c(SCC(=O)N2CCOCC2)nc2cc(Cl)ccc2c1=O", "note": "[CBK306482]", "viability at 28.5 h, 10 µM": 97.6}
{"compound": "Oc1ccccc1/C=N/CC(O)C/N=C/c1ccccc1O", "note": "[CBK261112]", "viability at 28.5 h, 10 µM": 103}
{"compound": "Cc1cccc(-c2n[nH]/c(=N/C(=O)c3ccccc3F)s2)c1", "note": "[CBK287957]", "viability at 28.5 h, 10 µM": 84.5}
{"compound": "CC(C)(C)C(=O)Nc1ccc(-c2ccc(NC(=O)C(C)(C)C)c(C(=O)O)c2)cc1C(=O)O", "note": "[CBK261392]", "viability at 28.5 h, 10 µM": 108}
{"compound": "O[C@@H]1C[C@@H](c2nc(-c3cccnc3)no2)N(Cc2cccs2)C1", "note": "[CBK288840]", "viability at 28.5 h, 10 µM": 111}
{"compound": "O=C(NCCc1c[nH]c2ccc(F)cc12)Nc1ccccc1", "note": "[CBK269964]", "viability at 28.5 h, 10 µM": 107}
{"compound": "O=C(Cc1ccccc1)Nc1ccc(C(=O)O)cc1NC(=O)Cc1ccccc1", "note": "[CBK287049]", "viability at 28.5 h, 10 µM": 108}
{"compound": "COc1ccc2nc(Nc3nnc(-c4ccco4)o3)sc2c1", "note": "[CBK287486]", "viability at 28.5 h, 10 µM": 102}
{"compound": "CCCN1CCN(C(=O)c2ccc(=O)n(C)c2)C(Cc2ccccc2-c2ccccc2)C1=O", "note": "(stereo not shown) [CBK285836]", "viability at 28.5 h, 10 µM": 108}
{"compound": "CCCCn1nc2[nH]c(=O)cc(C(F)F)c2c1C", "note": "[CBK288011]", "viability at 28.5 h, 10 µM": 93.8}
{"compound": "CC(=O)c1ccc(S(=O)(=O)NCc2ccc(C(F)(F)F)cc2)cc1", "note": "[CBK044314]", "viability at 28.5 h, 10 µM": 108}
{"compound": "CCc1nc2ccc(C(=O)Nc3ccc(C(N)=O)cc3)cn2c1N(CCN(C)C)CC1CC1", "note": "[CBK145468]", "viability at 28.5 h, 10 µM": 87.1}
{"compound": "COc1ccc([C@@]23CC[C@@H](CNC(=O)c4ccc(C(F)(F)F)cc4)C[C@@H]2N(C)CC3)cc1OC", "note": "[CBK042195]", "viability at 28.5 h, 10 µM": 107}
{"compound": "O=C(O)CC(c1ccncc1)c1c[nH]c2ccccc12", "note": "(stereo not shown) [CBK286913]", "viability at 28.5 h, 10 µM": 90.9}
{"compound": "O=C(NCCN1CCOCC1)NC(=O)c1ccc(Cl)cc1", "note": "[CBK269446]", "viability at 28.5 h, 10 µM": 88.2}
{"compound": "Cn1c(CSCc2ccccc2F)nnc1SCC(=O)c1ccc(Br)cc1", "note": "[CBK269143]", "viability at 28.5 h, 10 µM": 92.3}
{"compound": "CC(=O)Nc1ccc2c(CSc3nnc(-c4ccco4)n3C)cc(=O)oc2c1", "note": "[CBK297534]", "viability at 28.5 h, 10 µM": 91.7}
{"assay": "in vitro", "conditions": "human, hela cells, % viability, bulk resorufin, single well", "units": {"viability at 28.5 h, 10 µM": "%"}}
{"compound": "COc1ccc(CCN2C(=O)NC(=O)/C(=C\\c3c(C)[nH]c4ccccc34)C2=O)cc1OC", "note": "[CBK265368]", "viability at 28.5 h, 10 µM": 81.6}
{"compound": "COc1ccc(N2C(=O)/C(=C/c3cc(C)n(-c4ccc(N5CCOCC5)cc4)c3C)C(=O)NC2=S)cc1", "note": "[CBK263798]", "viability at 28.5 h, 10 µM": 89.7}
